“Also recorded” adds a separate entry of the source. Read-outs that look alike come from different tables or passages of the source. Marks after values point to notes of the source that are not given here.
Experiments:
Phyllosticta citricarpa [1] = test: Inhibition of Phyllosticta citricarpa pycnidia development in citrus leaves; assay type: cell-based; settings: 21 days; for Decrease of the number of pycnidia produced by P. citricarpa in citrus leaves: 10 mg/mL
Phyllosticta citricarpa [2] = test: Inhibition of citrus black spot development in detached citrus fruits; assay type: in vivo; settings: 21 days; for Inhibition of CBS symptoms in citrus fruits: 10 mg/mL
Phyllosticta citricarpa [3] = test: Mycelial growth inhibition assay in petri dishes; assay type: cell-based; settings: 21 days; for Inhibition of mycelial growth of P. citricarpa: petri dishes, 10 mg/mL
[4] = tested on: PC3 (prostate cancer) cell line; test: Cytotoxicity assay; settings: read-out: IC50 PC3
[5] = tested on: A549 (non-small cell lung cancer) cell line; test: Cytotoxicity assay; settings: read-out: IC50 A549
HCT-116 = settings: cited from earlier work
[6] = detached C. sinensis fruits, 10 μL of 10 mg/mL solution in methanol

| Compound | Decrease of the number of pycnidia produced by P. citricarpa in citrus leaves (Phyllosticta citricarpa [1]) | IC50 ([4]; Homo sapiens, 72 h) | Development of citrus black spot (CBS) symptoms (Phyllosticta citricarpa [2]; [6]) | IC50 ([5]; Homo sapiens, A549, 72 h) | IC50 ([4]; 72 h incubation) | IC50 ([5]; 72 h incubation) | further results |
| --- | --- | --- | --- | --- | --- | --- | --- |
| Cc1cc(O)c2c(=O)c3c(C(=O)O)cccc3oc2c1 [8a, 8-hydroxy-6-methyl-9-oxo-9H-xanthene-1-carboxylic acid] | less than 14% |  |  |  |  |  |  |
| Cc1cc(C(=O)O)c2c(=O)c3c(O)cccc3oc2c1 [8b, 8-hydroxy-3-methyl-9-oxo-9H-xanthene-1-carboxylic acid] | less than 14% |  |  |  |  |  |  |
| COC(=O)Nc1nc2ccccc2[nH]1 [Carbendazim, carbendazim, reference compound] |  |  |  |  |  |  | Development of citrus black spot (CBS) symptoms (Phyllosticta citricarpa [2]; positive control, 50 μg carbendazim, detached fruits): −; Growth [in cm mean (± SD)] of Phyllosticta citricarpa in petri dishes (Phyllosticta citricarpa [3]; positive control, carbendazim 1.0 mg/mL): 0 ^* cm; Number of pycnidia produced in leaves by P. citricarpa (Phyllosticta citricarpa [1]; positive control): 0 |
| CC(=O)OC[C@]12Oc3c(-c4ccc(O)c5c4O[C@@]4(COC(C)=O)C(=C(O)C[C@@H](C)[C@H]4OC(C)=O)C5=O)ccc(O)c3C(=O)C1=C(O)C[C@@H](C)[C@H]2OC(C)=O [compound 3, phomoxanthone A] | 70.2% | 3.18 ± 0.02 µM | − | 4.95 ± 0.53 µM |  |  | Inhibition of CBS symptoms in citrus fruits (Phyllosticta citricarpa [2]; detached fruits): inhibited the development of citrus black spot symptoms; also recorded: completely inhibited CBS symptoms; also recorded: suppressed the hyphal growth and development of CBS lesions |
| CC(=O)OC[C@]12Oc3ccc(-c4ccc(O)c5c4O[C@@]4(COC(C)=O)C(=C(O)C[C@@H](C)[C@H]4OC(C)=O)C5=O)c(O)c3C(=O)C1=C(O)C[C@@H](C)[C@H]2OC(C)=O [compound 4, phomoxanthone B] | 63.1% | 7.39 ± 0.62 µM | + | 10.4 ± 0.59 µM |  |  |  |
| CC(=O)OC[C@]12Oc3ccc(-c4ccc5c(c4O)C(=O)C4=C(O)C[C@@H](C)[C@@H](OC(C)=O)[C@@]4(COC(C)=O)O5)c(O)c3C(=O)C1=C(O)C[C@@H](C)[C@H]2OC(C)=O [compound 5, dicerandrol C] | less than 14% | 2.23 ± 0.13 µM | + | 2.92 ± 0.24 µM |  |  |  |
| C=C1[C@@H](C)[C@H]2[C@H](Cc3ccccc3)NC(=O)[C@]23[C@H](OC(C)=O)/C=C/[C@](C)(O)C[C@@H](C)C/C=C/[C@H]3[C@@H]1O [compound 6, cytochalasin H] | 78.3% |  | − |  | > 50 µM | > 50 µM | Inhibition of CBS symptoms in citrus fruits (Phyllosticta citricarpa [2]; detached fruits): inhibited the development of citrus black spot symptoms; also recorded: completely inhibited CBS symptoms; also recorded: suppressed the hyphal growth and development of CBS lesions; Inhibition of mycelial growth of P. citricarpa (Phyllosticta citricarpa [3]): 80% |
| C=C1[C@@H](C)[C@H]2[C@H](Cc3ccccc3)NC(=O)[C@]23[C@H](O)/C=C/[C@](C)(O)C[C@@H](C)C/C=C/[C@H]3[C@@H]1O [compound 7, cytochalasin J] | less than 14% |  | + |  | > 80 µM | > 80 µM |  |
| CCCCCCCc1cc(=O)c2c(CC(=O)OC)cc(O)cc2o1 [compound 9, 5-carbomethoxymethyl-2-heptyl-7-hydroxychromone] | no activity | > 80 µM | + | > 80 µM |  |  |  |
| Cc1occc(=O)c1O [compound 10, maltol] | less than 14% | > 80 µM | + | > 80 µM |  |  |  |
| COc1cc2c(cc1OC)[C@]1(O)C(=O)c3ccc4c(c3O[C@@H]1CO2)C=CC(C)(C)O4 [tephrosin] |  |  |  |  |  |  | Activity against colorectal cancer cell line HCT-116 (HCT-116): showed activity |
| paecilin Q [compound 1] | 50.5% |  | + |  | > 80 µM | > 80 µM | Inhibition of mycelial growth of P. citricarpa (Phyllosticta citricarpa [3]): 48.6% |
| paecilin R [compound 2] | 35.5% |  | + |  | > 80 µM | > 80 µM |  |
